The values that follow come from ChEMBL document CHEMBL1129875, “SYNTHESIS AND ANTISTAPHYLOCOCCAL ACTIVITY OF NEMATOPHIN AND ITS ANALOGS” (1997).

In brackets after ≈: the same amount, converted by molar mass.

The subject of this assay is Staphylococcus aureus. Briefly: Minimum inhibitory concentration required to inhibit Staphylococcus aureus ATCC 29213 cell growth. In kind it is functional.

As to `CCC(C)/C(=N\OC)C(=O)NCCc1c[nH]c2ccccc12` (stereo unspecified), the MIC is more than 100 µg/mL.
As for `CCC(C)C(=O)C(=O)NCCc1c[nH]c2ccc(C)cc12` (stereo unspecified), the figure is 3 µg/mL (≈ 10.5 µM); as for `CC(=O)C(=O)NCCc1c[nH]c2ccccc12`, 100 µg/mL (≈ 434 µM).
The molecule `CC(C)C(=O)C(=O)NCCc1c[nH]c2ccccc12` displayed an MIC of 3 µg/mL (≈ 11.6 µM).
As for `CCC(C)C(O)C(=O)NCCc1c[nH]c2ccccc12` (stereo unspecified), the figure is more than 100 µg/mL.
As for `CCC(C)C(=O)C(=O)NCCc1c[nH]c2ccc(OC)cc12` (stereo unspecified), the figure is 3 µg/mL (≈ 9.92 µM); as for `CCC(C)C(=O)C(=O)NCCc1c[nH]c2ccccc12` (stereo unspecified), 0.7 µg/mL (≈ 2.57 µM); as for `CCC(=O)C(=O)NCCc1c[nH]c2ccccc12`, 100 µg/mL (≈ 409 µM).
In the case of `CCC(C)C(=O)C(=O)NCCc1c[nH]c2cc(F)ccc12` (stereo unspecified), it took 0.7 µg/mL (≈ 2.41 µM) to inhibit growth (MIC).
As for `CCC(C)C(=O)C(=O)OCCc1c[nH]c2ccccc12` (stereo unspecified), the figure is 25 µg/mL (≈ 91.5 µM).
The same measure for `CC(C)CC(=O)C(=O)NCCc1c[nH]c2ccccc12`: 0.7 µg/mL (≈ 2.57 µM).

Broadly, the MIC is the lowest concentration found to suppress growth.
